The structures appear in SMILES notation.

As usually defined, the IC50 is the concentration that inhibits the measured activity by half. A lower IC50 goes with greater potency.

One test has as its target Acetylcholinesterase (Electrophorus electricus, UniProt O42275). The test is described as follows: AChE and BChE Inhibition Assay. As to conditions: pH 8; 25 °C. On the procedure:
(§1) To evaluate in vitro AChE activity, modified Ellman's method was performed using a 96-well plate reader (BioTek ELx808, Highland Park, IL, USA). Each well contained 50 µL potassium phosphate buffer (KH2PO4/K2HPO4, 0.1 M, pH 8), 25 µL sample dissolved in 50% methanol and 50% DMSO, and 25 µL enzyme (final concentration 0.22 U/mL in buffer). They were preincubated for 20 min at room temperature, and then, 125 µL DTNB (3 mM in buffer) was added. […] The IC50 values were determined graphically from inhibition curves (log inhibitor concentration versus percent of inhibition). A control experiment was performed under the same conditions without inhibitor and the blank contained buffer, DMSO, DTNB, and substrate. The described method was also used for BChE inhibition assa

The target in test [1] is Carboxylic ester hydrolase (Equus caballus, UniProt Q9N1N9). Briefly: AChE and BChE Inhibition Assay. As to conditions: pH 8; 25 °C. As to the method: as §1
Chain of Carboxylic ester hydrolase (Q9N1N9 whole entry): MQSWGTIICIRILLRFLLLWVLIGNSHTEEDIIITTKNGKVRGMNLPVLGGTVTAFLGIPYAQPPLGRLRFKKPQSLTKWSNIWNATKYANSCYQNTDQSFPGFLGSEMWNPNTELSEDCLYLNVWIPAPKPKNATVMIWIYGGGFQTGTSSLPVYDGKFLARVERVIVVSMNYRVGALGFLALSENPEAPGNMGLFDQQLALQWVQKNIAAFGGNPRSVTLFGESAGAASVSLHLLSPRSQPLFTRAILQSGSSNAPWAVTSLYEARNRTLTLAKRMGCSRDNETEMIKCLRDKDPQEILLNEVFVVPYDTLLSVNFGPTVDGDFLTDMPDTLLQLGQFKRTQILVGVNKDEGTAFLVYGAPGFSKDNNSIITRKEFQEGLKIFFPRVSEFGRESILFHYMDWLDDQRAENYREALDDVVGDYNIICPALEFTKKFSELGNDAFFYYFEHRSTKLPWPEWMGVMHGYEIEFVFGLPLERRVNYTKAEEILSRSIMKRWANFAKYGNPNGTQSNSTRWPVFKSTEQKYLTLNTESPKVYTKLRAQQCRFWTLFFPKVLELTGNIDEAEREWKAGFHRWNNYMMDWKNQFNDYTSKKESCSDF

Chain of Acetylcholinesterase (O42275 whole entry): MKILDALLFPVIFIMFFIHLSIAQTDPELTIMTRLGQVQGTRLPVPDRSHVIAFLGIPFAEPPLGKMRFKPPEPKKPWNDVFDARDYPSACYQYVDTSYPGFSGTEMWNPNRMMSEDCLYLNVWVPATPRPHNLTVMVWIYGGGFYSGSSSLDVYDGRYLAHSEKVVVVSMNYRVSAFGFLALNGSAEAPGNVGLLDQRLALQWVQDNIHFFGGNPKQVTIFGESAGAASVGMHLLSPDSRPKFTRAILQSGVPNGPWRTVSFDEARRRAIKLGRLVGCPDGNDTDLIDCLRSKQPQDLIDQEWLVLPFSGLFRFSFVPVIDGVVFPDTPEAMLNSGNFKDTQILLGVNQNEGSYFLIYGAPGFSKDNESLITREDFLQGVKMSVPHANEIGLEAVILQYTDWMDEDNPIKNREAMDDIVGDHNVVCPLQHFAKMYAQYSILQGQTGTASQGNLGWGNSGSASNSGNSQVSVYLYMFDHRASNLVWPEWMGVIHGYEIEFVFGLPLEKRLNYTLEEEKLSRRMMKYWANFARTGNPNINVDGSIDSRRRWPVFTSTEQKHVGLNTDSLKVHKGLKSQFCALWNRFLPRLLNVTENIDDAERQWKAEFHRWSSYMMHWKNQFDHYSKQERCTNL

For `O=c1c2ccccc2n(Cc2cn(Cc3nc(-c4ccc(Cl)cc4)no3)nn2)c2ccc(Br)cc12` [2-Bromo-10-((1-((3-(4-chlorophenyl)-1,2,4-oxadiazol-5-yl)methyl)-1H-1,2,3-triazol-4-yl)methyl)acridin-9(10H)-one (10p)], the IC50 (against Acetylcholinesterase; in test [1]) was more than 100 µM in each case.
For `COc1ccc(-c2noc(Cn3cc(Cn4c5ccccc5c(=O)c5cc(Br)ccc54)nn3)n2)cc1` [2-Bromo-10-((1-((3-(4-methoxyphenyl)-1,2,4-oxadiazol-5-yl)methyl)-1H-1,2,3-triazol-4-yl)methyl)acridin-9(10H)-one (10o)], the IC50 (on Acetylcholinesterase; in test [1]) was more than 100 µM each time.
For `O=c1c2ccccc2n(Cc2cn(Cc3nc(-c4ccc(Cl)cc4)no3)nn2)c2ccc(Cl)cc12` [2-Chloro-10-((1-((3-(4-chlorophenyl)-1,2,4-oxadiazol-5-yl)methyl)-1H-1,2,3-triazol-4-yl)methyl)acridin-9(10H)-one (10n)], the 50% inhibitory concentration (IC50) at Acetylcholinesterase was 44.9 µM; in test [1], more than 100 µM.
The corresponding values for `COc1ccc(-c2noc(Cn3cc(Cn4c5ccccc5c(=O)c5cc(Cl)ccc54)nn3)n2)cc1` [2-Chloro-10-((1-((3-(4-methoxyphenyl)-1,2,4-oxadiazol-5-yl)methyl)-1H-1,2,3-triazol-4-yl)methyl)acridin-9(10H)-one (10m)] are more than 100 µM and more than 100 µM.
For `Cc1ccc(-c2noc(Cn3cc(Cn4c5ccccc5c(=O)c5cc(Cl)ccc54)nn3)n2)cc1` [2-Chloro-10-((1-((3-(p-tolyl)-1,2,4-oxadiazol-5-yl)methyl)-1H-1,2,3-triazol-4-yl)methyl)acridin-9(10H)-one (10l)], the concentration for half-maximal inhibition (IC50) (at Acetylcholinesterase; in test [1]) was more than 100 µM each time.
Regarding `COc1ccc(-c2noc(Cn3cc(Cn4c5ccccc5c(=O)c5cc(OC)ccc54)nn3)n2)cc1` [2-Methoxy-10-((1-((3-(4-methoxyphenyl)-1,2,4-oxadiazol-5-yl)methyl)-1H-1,2,3-triazol-4-yl)methyl)acridin-9(10H)-one (10j)], the IC50 (against Acetylcholinesterase; in test [1]) was more than 100 µM each time.
As for `COc1ccc2c(c1)c(=O)c1ccccc1n2Cc1cn(Cc2nc(-c3ccc(C)cc3)no2)nn1` [2-Methoxy-10-((1-((3-(p-tolyl)-1,2,4-oxadiazol-5-yl)methyl)-1H-1,2,3-triazol-4-yl)methyl)acridin-9(10H)-one (10i)], the IC50 (at Acetylcholinesterase; in test [1]) was more than 100 µM each time.
`COc1ccc(-c2noc(Cn3cc(Cn4c5ccccc5c(=O)c5cccc(Cl)c54)nn3)n2)cc1` [4-Chloro-10-((1-((3-(4-methoxyphenyl)-1,2,4-oxadiazol-5-yl)methyl)-1H-1,2,3-triazol-4-yl)methyl)acridin-9(10H)-one (10g)]: the IC50 (at Acetylcholinesterase; in test [1]) was more than 100 µM each time.
Turning to `COc1ccc(-c2noc(Cn3cc(Cn4c5ccccc5c(=O)c5cccc(OC)c54)nn3)n2)cc1` [4-Methoxy-10-((1-((3-(4-methoxyphenyl)-1,2,4-oxadiazol-5-yl)methyl)-1H-1,2,3-triazol-4-yl)methyl)acridin-9(10H)-one (10f)], the half-maximal inhibitory concentration (IC50) (against Acetylcholinesterase; in test [1]) was more than 100 µM each time.
For the compound `COc1cccc2c(=O)c3ccccc3n(Cc3cn(Cc4nc(-c5ccc(C)cc5)no4)nn3)c12` [4-Methoxy-10-((1-((3-(p-tolyl)-1,2,4-oxadiazol-5-yl)methyl)-1H-1,2,3-triazol-4-yl)methyl)acridin-9(10H)-one (10e)], the half-maximal inhibitory concentration (IC50) (on Acetylcholinesterase; in test [1]) was more than 100 µM in each case.
Turning to `O=c1c2ccccc2n(Cc2cn(Cc3nc(-c4ccc(Br)cc4)no3)nn2)c2ccccc12` [10-((1-((3-(4-Bromophenyl)-1,2,4-oxadiazol-5-yl)methyl)-1H-1,2,3-triazol-4-yl)methyl)acridin-9(10H)-one (10d)], the IC50 against Acetylcholinesterase was 67.4 µM; in test [1], more than 100 µM.
The like results for `COc1ccc2c(c1)c(=O)c1ccccc1n2Cc1cn(Cc2nc(-c3ccc(Cl)cc3)no2)nn1` [10-((1-((3-(4-Chlorophenyl)-1,2,4-oxadiazol-5-yl)methyl)-1H-1,2,3-triazol-4-yl)methyl)-2-methoxyacridin-9(10H)-one (10k)] were, in that order, 77.8 µM and more than 100 µM.
The corresponding values for `Cc1ccc2c(c1)c(=O)c1ccccc1n2Cc1cn(Cc2nc(-c3ccc(Cl)cc3)no2)nn1` [10-((1-((3-(4-Chlorophenyl)-1,2,4-oxadiazol-5-yl)methyl)-1H-1,2,3-triazol-4-yl)methyl)-2-methylacridin-9(10H)-one (10h)] are more than 100 µM and more than 100 µM.
The like results for `O=c1c2ccccc2n(Cc2cn(Cc3nc(-c4ccc(Cl)cc4)no3)nn2)c2ccccc12` [10-((1-((3-(4-Chlorophenyl)-1,2,4-oxadiazol-5-yl)methyl)-1H-1,2,3-triazol-4-yl)methyl)acridin-9(10H)-one (10c)] were, in that order, 24.7 µM and 88.9 µM.
`COc1ccc(-c2noc(Cn3cc(Cn4c5ccccc5c(=O)c5ccccc54)nn3)n2)cc1` [10-((1-((3-(4-Methoxyphenyl)-1,2,4-oxadiazol-5-yl)methyl)-1H-1,2,3-triazol-4-yl)methyl)acridin-9(10H)-one (10b)]: the results for the IC50 (against Acetylcholinesterase; in test [1]) were 11.5 µM and more than 100 µM, respectively.
The corresponding values for `Cc1ccc(-c2noc(Cn3cc(Cn4c5ccccc5c(=O)c5ccccc54)nn3)n2)cc1` [10-((1-((3-(p-Tolyl)-1,2,4-oxadiazol-5-yl)methyl)-1H-1,2,3-triazol-4-yl)methyl)acridin-9(10H)-one (10a)] are 49 µM and more than 100 µM.

Values taken from BindingDB's records for doi:10.1111/cbdd.12609 (Tehran University of Medical Sciences, 2015).
